Each block holds one compound with its values, some of them ahead of it.
Test system: 435261-313-R-J1-PDC tumor spheroid viability
Test: Anticancer human tumor 435261-313-R-J1-PDC patient-derived colon adenocarcinoma cell line growth inhibition [PI3K]
Conditions: spheroids with HUVEC and MSC; for IC50: curve of first compound; for viability, T/C: stronger effect = lower value
In short: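 Complex 3D spheroids (cancer cells + endothelial HUVEC + mesenchymal stem cells); drug pairs of targeted agent x inavolisib/alpelisib/duvelisib/copanlisib; half-log series from ~Cmax, max 10 microM if Cmax unknown; endpoint viability.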
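Further: spheroids exposed to compounds for 7 days.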

- IC50 (second compound 0.0316 µM): 2550 nM
- IC50 (second compound 0.1 µM): 1920 nM
- IC50 (second compound 0.316 µM): 1470 nM
- IC50 (second compound 1 µM): 1550 nM
- IC50 (second compound 3.16 µM): < 31.6 nM
- IC50 (second compound 10 µM): < 31.6 nM
Compound: CC1(C)CCC(Nc2ncc(C(F)(F)F)c(-c3c[nH]c4c(P(C)(C)=O)c(C#N)ccc34)n2)CN1 (centres undefined) + CC(Nc1ncnc2nc[nH]c12)c1cc2cccc(Cl)c2c(=O)n1-c1ccccc1
- viability, T/C (second compound 0.0316 µM, first compound 0.0316 µM): 61.1%
- viability, T/C (second compound 0.0316 µM, first compound 0.1 µM): 52.4%
- viability, T/C (second compound 0.0316 µM, first compound 0.316 µM): 61.4%
- viability, T/C (second compound 0.0316 µM, first compound 1 µM): 61.4%
- viability, T/C (second compound 0.0316 µM, first compound 3.16 µM): 48%
- viability, T/C (second compound 0.0316 µM, first compound 10 µM): 1.46%
- viability, T/C (second compound 0.1 µM, first compound 0.0316 µM): 70.5%
- viability, T/C (second compound 0.1 µM, first compound 0.1 µM): 60.4%
- viability, T/C (second compound 0.1 µM, first compound 0.316 µM): 53.4%
- viability, T/C (second compound 0.1 µM, first compound 1 µM): 60.6%
- viability, T/C (second compound 0.1 µM, first compound 3.16 µM): 44.4%
- viability, T/C (second compound 0.1 µM, first compound 10 µM): 2.25%
- viability, T/C (second compound 0.316 µM, first compound 0.0316 µM): 56.9%
- viability, T/C (second compound 0.316 µM, first compound 0.1 µM): 57.8%
- viability, T/C (second compound 0.316 µM, first compound 0.316 µM): 58.2%
- viability, T/C (second compound 0.316 µM, first compound 1 µM): 50.9%
- viability, T/C (second compound 0.316 µM, first compound 3.16 µM): 43.5%
- viability, T/C (second compound 0.316 µM, first compound 10 µM): 0.98%
- viability, T/C (second compound 1 µM, first compound 0.0316 µM): 50.5%
- viability, T/C (second compound 1 µM, first compound 0.1 µM): 52.1%
- viability, T/C (second compound 1 µM, first compound 0.316 µM): 57.2%
- viability, T/C (second compound 1 µM, first compound 1 µM): 57%
- viability, T/C (second compound 1 µM, first compound 3.16 µM): 44.3%
- viability, T/C (second compound 1 µM, first compound 10 µM): 1.03%
- viability, T/C (second compound 3.16 µM, first compound 0.0316 µM): 37.3%
- viability, T/C (second compound 3.16 µM, first compound 0.1 µM): 42.8%
- viability, T/C (second compound 3.16 µM, first compound 0.316 µM): 44%
- viability, T/C (second compound 3.16 µM, first compound 1 µM): 47.8%
- viability, T/C (second compound 3.16 µM, first compound 3.16 µM): 36.9%
- viability, T/C (second compound 3.16 µM, first compound 10 µM): 0.77%
- viability, T/C (second compound 10 µM, first compound 0.0316 µM): 33.6%
- viability, T/C (second compound 10 µM, first compound 0.1 µM): 27.4%
- viability, T/C (second compound 10 µM, first compound 0.316 µM): 27.7%
- viability, T/C (second compound 10 µM, first compound 1 µM): 31.1%
- viability, T/C (second compound 10 µM, first compound 3.16 µM): 22.3%
- viability, T/C (second compound 10 µM, first compound 10 µM): 1.14%

- IC50 (second compound 0.00316 µM): < 9.49 nM
- IC50 (second compound 0.01 µM): < 9.49 nM
- IC50 (second compound 0.0316 µM): < 9.49 nM
- IC50 (second compound 0.1 µM): < 9.49 nM
- IC50 (second compound 0.316 µM): < 9.49 nM
- IC50 (second compound 1 µM): < 9.49 nM
Compound: Cn1cnc2c(F)c(Nc3ccc(Br)cc3Cl)c(C(=O)NOCCO)cc21 + COc1c(OCCCN2CCOCC2)ccc2c3n(c(=NC(=O)c4cnc(N)nc4)nc12)CCN3
- viability, T/C (second compound 0.00316 µM, first compound 0.00949 µM): 29.7%
- viability, T/C (second compound 0.00316 µM, first compound 0.03 µM): 25.4%
- viability, T/C (second compound 0.00316 µM, first compound 0.0949 µM): 20.5%
- viability, T/C (second compound 0.00316 µM, first compound 0.3 µM): 19%
- viability, T/C (second compound 0.00316 µM, first compound 0.949 µM): 19.1%
- viability, T/C (second compound 0.00316 µM, first compound 3 µM): 14.2%
- viability, T/C (second compound 0.01 µM, first compound 0.00949 µM): 24.2%
- viability, T/C (second compound 0.01 µM, first compound 0.03 µM): 20.6%
- viability, T/C (second compound 0.01 µM, first compound 0.0949 µM): 22.4%
- viability, T/C (second compound 0.01 µM, first compound 0.3 µM): 17.8%
- viability, T/C (second compound 0.01 µM, first compound 0.949 µM): 16.4%
- viability, T/C (second compound 0.01 µM, first compound 3 µM): 9.17%
- viability, T/C (second compound 0.0316 µM, first compound 0.00949 µM): 30.9%
- viability, T/C (second compound 0.0316 µM, first compound 0.03 µM): 16.9%
- viability, T/C (second compound 0.0316 µM, first compound 0.0949 µM): 14.4%
- viability, T/C (second compound 0.0316 µM, first compound 0.3 µM): 11.1%
- viability, T/C (second compound 0.0316 µM, first compound 0.949 µM): 11.4%
- viability, T/C (second compound 0.0316 µM, first compound 3 µM): 3.71%
- viability, T/C (second compound 0.1 µM, first compound 0.00949 µM): 8.18%
- viability, T/C (second compound 0.1 µM, first compound 0.03 µM): 7.27%
- viability, T/C (second compound 0.1 µM, first compound 0.0949 µM): 7.24%
- viability, T/C (second compound 0.1 µM, first compound 0.3 µM): 6.07%
- viability, T/C (second compound 0.1 µM, first compound 0.949 µM): 3.14%
- viability, T/C (second compound 0.1 µM, first compound 3 µM): 0.52%
- viability, T/C (second compound 0.316 µM, first compound 0.00949 µM): 2.98%
- viability, T/C (second compound 0.316 µM, first compound 0.03 µM): 2.65%
- viability, T/C (second compound 0.316 µM, first compound 0.0949 µM): 1.65%
- viability, T/C (second compound 0.316 µM, first compound 0.3 µM): 0.71%
- viability, T/C (second compound 0.316 µM, first compound 0.949 µM): 0.32%
- viability, T/C (second compound 0.316 µM, first compound 3 µM): 0.75%
- viability, T/C (second compound 1 µM, first compound 0.00949 µM): 0.94%
- viability, T/C (second compound 1 µM, first compound 0.03 µM): 0.62%
- viability, T/C (second compound 1 µM, first compound 0.0949 µM): 0.53%
- viability, T/C (second compound 1 µM, first compound 0.3 µM): 0.36%
- viability, T/C (second compound 1 µM, first compound 0.949 µM): 0.26%
- viability, T/C (second compound 1 µM, first compound 3 µM): 0.49%

Reference: PubChem BioAssay AID1963976 (Molecular Pharmacology Branch, DTP, NCI, 2024)
